Test results as given in ChEMBL document CHEMBL4765279, “Discovery of a novel series of imidazo[1',2':1,6]pyrido[2,3-d]pyrimidin derivatives as potent cyclin-dependent kinase 4/6 inhibitors” (Eur J Med Chem, 2020).
Active and inactive are the calls of the source. The rule behind the calls is not given here.

Key:
U-87 MG [1] = experiment: Antiproliferative activity against human U-87 MG cells assessed as cell growth inhibition measured after 4 to 6 days by celltiter-glo luminescent cell viability assay; assay type: functional, cell-based, U-87MG ATCC
CDK4/Cyclin D3 = CDK4/Cyclin D3 (Homo sapiens, UniProt P11802); experiment: Inhibition of recombinant human full-length N-terminal GST-fused CDK4 (1 to 303 residues)/GST-tagged CyclinD3 (1 to 292 residues) expressed in baculovirus expression system using ULight-elF4E-binding protein 1 peptide as substrate measured after 30 mins by LANCE assay
[2] = AUC (0 to t) in BALB/c mouse at 3 mg/kg, iv by LC-MS/MS analysis; assay type: ADME, organism-based; set-up: dose 3 mg/kg; details: in vivo
Cytochrome P450 3A4 = Cytochrome P450 3A4 (Homo sapiens, UniProt P08684); experiment: Time-dependent inhibition of CYP3A4 in human liver microsomes at 10 uM in presence of NADPH by LC-MS/MS analysis; assay type: ADME
COLO 205 [3] = experiment: Antitumor activity against human COLO 205 cells xenografted in po dosed BALB/c mouse assessed as tumor growth inhibition administered once daily or every three days for 11 days; assay type: functional, organism-based; details: time 11.0 day
[4] = Cmax in Sprague-Dawley rat at 6 mg/kg, po by LC-MS/MS analysis; assay type: ADME, organism-based; set-up: route oral, dose 6 mg/kg; details: in vivo
[5] = Toxicity in human COLO 205 cells xenografted BALB/c mouse assessed as body weight loss at 3 mg/kg, po qd for 11 days relative to control; assay type: organism-based; details: in vivo, time 11 day
COLO 205 [6] = experiment: Antitumor activity against human COLO 205 cells xenografted in BALB/c mouse assessed as tumor growth inhibition at 30 mg/kg, po q3d for 11 days relative to control; assay type: functional; details: COLO 205, po, time 11 day, read-out: TGI
[7] = AUC (0 to t) in BALB/c mouse at 10 mg/kg, po by LC-MS/MS analysis; assay type: ADME, organism-based; set-up: dose 10 mg/kg; details: in vivo
[8] = Cmax in BALB/c mouse at 10 mg/kg, po by LC-MS/MS analysis; assay type: ADME, organism-based; set-up: route oral, dose 10 mg/kg; details: in vivo
[9] = Half life in BALB/c mouse at 3 mg/kg, iv by LC-MS/MS analysis; assay type: ADME, organism-based; details: in vivo
CYP2C9 = CYP2C9 (Homo sapiens, UniProt P11712); experiment: Inhibition of CYP2C9 in human liver microsomes at 10 uM measured after 20 mins in presence of NADPH by LC-MS/MS analysis relative to control; assay type: ADME
Cytochrome P450 2C9 = Cytochrome P450 2C9 (Homo sapiens, UniProt P11712); experiment: Time-dependent inhibition of CYP2C9 in human liver microsomes at 10 uM in presence of NADPH by LC-MS/MS analysis; assay type: ADME
COLO 205 [10] = experiment: Antiproliferative activity against human COLO 205 cells assessed as cell growth inhibition measured after 4 to 6 days by celltiter-glo luminescent cell viability assay; assay type: functional, cell-based
[11] = Toxicity in human COLO 205 cells xenografted BALB/c mouse assessed as body weight loss at 30 mg/kg, po q3d for 11 days relative to control; assay type: organism-based; details: in vivo, time 11 day
[12] = Volume of distribution at steady state in BALB/c mouse at 3 mg/kg, iv by LC-MS/MS analysis; assay type: ADME, organism-based; details: in vivo, read-out: Vdss
COLO 205 [13] = experiment: Antitumor activity against human COLO 205 cells xenografted in BALB/c mouse assessed as tumor growth inhibition at 3 mg/kg, po qd for 11 days relative to control; assay type: functional; details: COLO 205, po, time 11 day, read-out: TGI
COLO 205 [14] = experiment: Antitumor activity against human COLO 205 cells xenografted in BALB/c mouse assessed as reduction in tumor volume at 30 mg/kg, po q3d for 11 days measured post last dose by caliper method; assay type: functional, organism-based; details: time 11.0 day
MDA-MB-468 = experiment: Antiproliferative activity against human MDA-MB-468 cells assessed as cell growth inhibition measured after 4 to 6 days by celltiter-glo luminescent cell viability assay; assay type: functional, cell-based
[15] = Oral bioavailability in BALB/c mouse at 10 mg/kg by LC-MS/MS analysis; assay type: ADME, organism-based; details: in vivo
[16] = biological target: Cyclin-dependent kinase 7/ cyclin H (Homo sapiens, UniProt P50613); experiment: Inhibition of CDK7/cyclin H (unknown origin); assay type: protein-complex assay
[17] = Half life in Sprague-Dawley rat at 6 mg/kg, po by LC-MS/MS analysis; assay type: ADME, organism-based; details: in vivo
[18] = AUC (0 to t) in Sprague-Dawley rat at 6 mg/kg, po by LC-MS/MS analysis; assay type: ADME, organism-based; set-up: dose 6 mg/kg; details: in vivo
COLO 205 [19] = experiment: Antitumor activity against human COLO 205 cells xenografted in BALB/c mouse assessed as tumor growth at 3 mg/kg, po qd for 11 days measured post last dose relative to control; assay type: functional; details: time 11 day
[20] = biological target: Cyclin-dependent kinase 1/cyclin B1 (Homo sapiens, UniProt P06493)
Description: Inhibition of CDK1/cyclin B (unknown origin)

U-87 MG [21] = experiment: Antitumor activity against human U-87 MG cells xenografted in BALB/c mouse assessed as tumor growth inhibition at 10 mg/kg, po qd for 16 days relative to control; assay type: functional, U-87MG ATCC; details: 384 h, time 16 day, read-out: TGI
COLO 205 [22] = experiment: Antitumor activity against human COLO 205 cells xenografted in BALB/c mouse assessed as tumor growth at 3 mg/kg, po q3d for 11 days measured post last dose relative to control; assay type: functional; details: time 11 day
[23] = Intrinsic clearance in human liver microsomes at 1 uM preincubated for 10 mins followed by NADPH addition and measured after 1 hr by LC-MS/MS analysis; assay type: ADME, Microsome; details: time 70 min, read-out: CLH
CYP2C19 = CYP2C19 (Homo sapiens, UniProt P33261); experiment: Inhibition of CYP2C19 in human liver microsomes at 10 uM measured after 20 mins in presence of NADPH by LC-MS/MS analysis relative to control; assay type: ADME
[24] = Volume of distribution at steady state in Sprague-Dawley rat at 3 mg/kg, iv by LC-MS/MS analysis; assay type: ADME, organism-based; details: in vivo, read-out: Vdss
CYP2D6 = CYP2D6 (Homo sapiens, UniProt P10635); experiment: Inhibition of CYP2D6 in human liver microsomes at 10 uM measured after 20 mins in presence of NADPH by LC-MS/MS analysis relative to control; assay type: ADME
U-87 MG [25] = experiment: Antitumor activity against human U-87 MG cells xenografted in BALB/c mouse assessed as tumor growth at 10 mg/kg, po qd for 16 days relative to control; assay type: functional, U-87MG ATCC; details: time 16 day
[26] = Half life in Sprague-Dawley rat at 3 mg/kg, iv by LC-MS/MS analysis; assay type: ADME, organism-based; details: in vivo
[27] = Oral bioavailability in Sprague-Dawley rat at 6 mg/kg by LC-MS/MS analysis; assay type: ADME, organism-based; details: in vivo
CDK6/Cyclin D3 = CDK6/Cyclin D3 (Homo sapiens, UniProt Q00534); experiment: Inhibition of human full-length N-terminal GST tagged CDK6 (1 to 326 residues)/GST-tagged cyclinD3 (1 to 292 residues) expressed in baculovirus expression system using ULight-elF4E-binding protein 1 peptide as substrate measured after 30 mins by LANCE assay
COLO 205 [28] = experiment: Cell cycle arrest in human COLO 205 cells assessed as accumulation at G0/G1 phase at 200 nM measured after 24 hrs by propidium iodide staining based flow cytometry relative to control; assay type: functional

CYP2C19, sequence (P33261 whole entry): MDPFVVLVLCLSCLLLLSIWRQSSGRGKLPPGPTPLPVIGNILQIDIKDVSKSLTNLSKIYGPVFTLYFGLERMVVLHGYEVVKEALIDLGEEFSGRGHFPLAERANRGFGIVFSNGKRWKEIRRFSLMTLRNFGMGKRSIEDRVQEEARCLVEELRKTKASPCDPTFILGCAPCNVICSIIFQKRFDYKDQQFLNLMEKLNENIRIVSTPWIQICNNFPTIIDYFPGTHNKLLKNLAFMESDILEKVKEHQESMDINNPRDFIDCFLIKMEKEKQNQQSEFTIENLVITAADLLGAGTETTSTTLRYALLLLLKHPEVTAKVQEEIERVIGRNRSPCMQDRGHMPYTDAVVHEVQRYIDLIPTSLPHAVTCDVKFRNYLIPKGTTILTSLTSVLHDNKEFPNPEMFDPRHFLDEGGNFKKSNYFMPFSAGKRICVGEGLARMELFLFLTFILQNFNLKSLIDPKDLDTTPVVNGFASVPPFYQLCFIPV
CYP2C9, sequence (P11712 whole entry): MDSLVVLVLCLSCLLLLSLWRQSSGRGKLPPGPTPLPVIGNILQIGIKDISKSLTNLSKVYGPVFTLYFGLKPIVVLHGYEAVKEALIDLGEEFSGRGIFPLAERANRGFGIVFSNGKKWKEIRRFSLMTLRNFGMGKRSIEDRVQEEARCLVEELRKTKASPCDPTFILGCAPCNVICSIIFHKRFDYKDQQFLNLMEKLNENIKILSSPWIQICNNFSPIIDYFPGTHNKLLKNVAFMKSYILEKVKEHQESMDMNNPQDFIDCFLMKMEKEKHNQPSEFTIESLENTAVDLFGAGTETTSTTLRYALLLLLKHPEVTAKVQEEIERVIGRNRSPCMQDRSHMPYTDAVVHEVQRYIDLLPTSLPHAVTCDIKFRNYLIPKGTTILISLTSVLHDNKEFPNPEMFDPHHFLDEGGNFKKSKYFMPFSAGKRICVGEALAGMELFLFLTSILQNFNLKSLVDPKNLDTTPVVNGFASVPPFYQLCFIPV
Cytochrome P450 2C9, sequence (P11712 whole entry): as above
CYP2D6, sequence (P10635 whole entry): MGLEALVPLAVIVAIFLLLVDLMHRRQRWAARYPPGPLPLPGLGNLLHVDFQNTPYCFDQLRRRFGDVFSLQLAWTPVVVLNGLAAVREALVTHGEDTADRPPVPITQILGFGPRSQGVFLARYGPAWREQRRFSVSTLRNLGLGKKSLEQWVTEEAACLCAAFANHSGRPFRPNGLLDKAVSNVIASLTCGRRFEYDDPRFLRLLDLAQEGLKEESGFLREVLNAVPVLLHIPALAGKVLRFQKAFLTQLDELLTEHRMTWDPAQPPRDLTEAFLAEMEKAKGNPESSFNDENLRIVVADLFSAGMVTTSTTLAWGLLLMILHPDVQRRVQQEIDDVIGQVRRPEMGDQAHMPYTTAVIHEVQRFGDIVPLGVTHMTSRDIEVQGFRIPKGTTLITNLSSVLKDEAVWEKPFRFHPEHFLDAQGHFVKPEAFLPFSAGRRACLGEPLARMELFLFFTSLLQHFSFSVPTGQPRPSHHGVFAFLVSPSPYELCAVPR
Cyclin-dependent kinase 1/cyclin B1, sequence (P06493 whole entry): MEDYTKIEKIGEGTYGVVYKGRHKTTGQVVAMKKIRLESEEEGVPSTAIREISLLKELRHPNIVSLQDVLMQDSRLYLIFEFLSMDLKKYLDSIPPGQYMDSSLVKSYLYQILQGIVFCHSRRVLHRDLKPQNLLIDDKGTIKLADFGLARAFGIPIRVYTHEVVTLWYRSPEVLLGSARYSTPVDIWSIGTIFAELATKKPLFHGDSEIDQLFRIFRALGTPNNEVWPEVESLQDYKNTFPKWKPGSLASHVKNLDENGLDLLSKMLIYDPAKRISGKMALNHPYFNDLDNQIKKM
Cyclin-dependent kinase 1/cyclin B1, sequence (P14635 whole entry, further chain): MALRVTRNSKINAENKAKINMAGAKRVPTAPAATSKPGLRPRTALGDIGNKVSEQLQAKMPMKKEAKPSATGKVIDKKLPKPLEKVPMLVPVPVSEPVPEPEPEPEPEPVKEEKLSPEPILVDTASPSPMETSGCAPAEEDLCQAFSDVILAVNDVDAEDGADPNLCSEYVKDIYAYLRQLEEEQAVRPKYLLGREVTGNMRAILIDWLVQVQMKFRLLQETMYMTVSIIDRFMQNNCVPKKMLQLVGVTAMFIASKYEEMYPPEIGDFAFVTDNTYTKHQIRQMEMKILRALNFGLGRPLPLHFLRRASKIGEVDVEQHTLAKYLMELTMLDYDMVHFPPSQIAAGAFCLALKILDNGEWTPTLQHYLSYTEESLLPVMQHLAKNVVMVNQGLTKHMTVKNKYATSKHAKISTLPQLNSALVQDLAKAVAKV
CDK6/Cyclin D3, sequence (Q00534 whole entry, looked up, the tested form may be a part): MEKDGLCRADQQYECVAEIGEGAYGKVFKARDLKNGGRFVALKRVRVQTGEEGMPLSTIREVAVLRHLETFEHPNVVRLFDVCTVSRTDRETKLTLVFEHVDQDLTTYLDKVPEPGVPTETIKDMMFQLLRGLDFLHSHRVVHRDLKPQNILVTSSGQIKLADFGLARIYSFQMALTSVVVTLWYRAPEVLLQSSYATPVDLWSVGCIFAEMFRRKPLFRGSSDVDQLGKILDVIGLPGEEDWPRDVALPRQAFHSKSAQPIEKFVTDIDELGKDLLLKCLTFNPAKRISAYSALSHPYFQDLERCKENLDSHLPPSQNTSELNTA
Cyclin-dependent kinase 7/ cyclin H, sequence (P51946 whole entry): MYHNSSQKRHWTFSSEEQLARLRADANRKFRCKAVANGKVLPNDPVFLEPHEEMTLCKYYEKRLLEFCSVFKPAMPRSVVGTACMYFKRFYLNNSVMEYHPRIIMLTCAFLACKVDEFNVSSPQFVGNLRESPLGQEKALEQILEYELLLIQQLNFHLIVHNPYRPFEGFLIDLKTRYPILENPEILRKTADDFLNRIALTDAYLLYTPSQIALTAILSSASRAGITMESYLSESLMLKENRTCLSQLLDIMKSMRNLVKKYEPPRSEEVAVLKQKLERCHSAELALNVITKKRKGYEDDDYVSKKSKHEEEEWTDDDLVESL
Cyclin-dependent kinase 7/ cyclin H, sequence (P50613 whole entry): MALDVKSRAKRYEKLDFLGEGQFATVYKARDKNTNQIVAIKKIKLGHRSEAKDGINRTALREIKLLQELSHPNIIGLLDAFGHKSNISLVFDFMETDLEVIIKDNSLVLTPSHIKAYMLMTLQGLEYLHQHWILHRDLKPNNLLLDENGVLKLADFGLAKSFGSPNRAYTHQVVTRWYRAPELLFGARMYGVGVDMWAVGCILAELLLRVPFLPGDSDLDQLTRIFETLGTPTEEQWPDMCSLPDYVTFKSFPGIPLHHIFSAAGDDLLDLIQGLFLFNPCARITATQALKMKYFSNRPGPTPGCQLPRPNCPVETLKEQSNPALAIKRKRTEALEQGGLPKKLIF
CDK4/Cyclin D3, sequence (P11802 whole entry, the tested form may be a part): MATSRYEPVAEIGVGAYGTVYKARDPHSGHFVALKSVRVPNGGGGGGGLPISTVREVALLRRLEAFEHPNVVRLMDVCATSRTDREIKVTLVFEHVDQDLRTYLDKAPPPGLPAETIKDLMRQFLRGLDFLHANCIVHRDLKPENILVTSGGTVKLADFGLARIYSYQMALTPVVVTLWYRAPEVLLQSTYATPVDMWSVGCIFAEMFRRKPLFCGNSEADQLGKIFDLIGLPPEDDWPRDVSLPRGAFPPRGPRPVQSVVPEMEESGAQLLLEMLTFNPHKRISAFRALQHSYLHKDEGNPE
CDK4/Cyclin D3, sequence (P30281 whole entry, further chain, the tested form may be a part): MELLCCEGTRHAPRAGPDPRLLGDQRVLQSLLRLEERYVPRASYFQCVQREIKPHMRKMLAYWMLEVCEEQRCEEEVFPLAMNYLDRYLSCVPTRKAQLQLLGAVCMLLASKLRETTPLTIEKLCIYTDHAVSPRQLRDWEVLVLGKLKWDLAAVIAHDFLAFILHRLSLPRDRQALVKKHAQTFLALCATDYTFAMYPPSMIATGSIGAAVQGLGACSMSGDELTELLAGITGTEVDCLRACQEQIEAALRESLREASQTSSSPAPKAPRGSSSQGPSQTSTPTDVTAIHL
Cytochrome P450 3A4, sequence (P08684 whole entry): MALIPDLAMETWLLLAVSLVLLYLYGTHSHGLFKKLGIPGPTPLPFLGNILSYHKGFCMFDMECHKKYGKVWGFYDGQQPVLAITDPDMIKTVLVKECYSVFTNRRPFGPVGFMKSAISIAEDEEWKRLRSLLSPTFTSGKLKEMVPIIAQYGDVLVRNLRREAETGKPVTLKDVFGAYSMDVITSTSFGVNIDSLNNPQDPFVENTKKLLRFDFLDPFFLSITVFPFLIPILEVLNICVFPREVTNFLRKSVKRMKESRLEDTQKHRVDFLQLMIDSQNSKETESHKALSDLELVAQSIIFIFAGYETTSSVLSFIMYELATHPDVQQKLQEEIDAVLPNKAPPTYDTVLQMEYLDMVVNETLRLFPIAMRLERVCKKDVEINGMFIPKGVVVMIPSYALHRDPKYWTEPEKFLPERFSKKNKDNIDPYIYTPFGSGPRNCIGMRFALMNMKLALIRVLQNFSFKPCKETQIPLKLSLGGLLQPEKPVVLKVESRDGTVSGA

- IC50 (U-87 MG [1]): 84.6 nM
- IC50 (CDK4/Cyclin D3): 0.8 nM
- AUCt [2]: 472 ng·h/mL
- TDI (Cytochrome P450 3A4): Not Active
- Cmax [4]: 110 ng/mL
- AUC(0-t) [7]: 318 ng·h/mL
- Cmax [8]: 90 ng/mL
- half-life [9]: 6.17 h
- inhibition at […], 10 µM (CYP2C9): 11%
- TDI (Cytochrome P450 2C9): Not Active
- IC50 (COLO 205 [10]): 56.4 nM
- Vd [12]: 46.5 L/kg
- IC50 (MDA-MB-468): 874 nM
- bioavailability [15]: 20.5%
- IC50 [16]: 94.7 nM
- half-life [17]: 4.96 h
- AUC(0-t) [18]: 1120 ng·h/mL
- IC50 [20]: 309 nM
- microsomal CLint at 1 µM [23]: 6 µL/min/mg
- inhibition at […], 10 µM (CYP2C19): 21%
- Vd [24]: 35.2 L/kg
- inhibition at […], 10 µM (CYP2D6): 14%
- half-life [26]: 3.25 h
- bioavailability [27]: 65.2%
- IC50 (CDK6/Cyclin D3): 2 nM
SMILES: CC(=O)c1c(C)c2cnc(Nc3ccc(N4CCNCC4)cc3)nc2n2cc(C(C)C)nc12
- TGI (COLO 205 [3]): Dose-dependent effect
- Activity [5]: < 20%
- inhibition in vivo at 30 mg/kg (COLO 205 [6]): 85%
- Activity [11]: < 20%
- inhibition in vivo at 3 mg/kg (COLO 205 [13]): 63%
- Activity (COLO 205 [14]): Active
- T/C (COLO 205 [19]): 33%
- inhibition in vivo at 10 mg/kg (U-87 MG [21]): 54%
- T/C (COLO 205 [22]): 52%
- T/C (U-87 MG [25]): 53%
- Activity (COLO 205 [28]): 94.2%
